Experiments:
[1] = molecular target: PTP1B (Homo sapiens (Human), UniProt P18031); experiment: Experiment of PTP1B inhibition (p-NPP dephosphorylation); assay type: biochemical; details: 2 mM p-NPP substrate, 30° C., 30 minutes
From the text: With respect to PTP1B, the degrees of inhibition (IC50 The half maximal inhibitory concentration) of glabridin, and compounds of Preparation Example 2 (Compound 1), Example 2 (Compound 3), Example 3 (Compound 4), Example 4 (Compound 5), Example 13 (Compound 14), Example 14 (Compound 15), Example 15 (Compound 16), Example 17 (Compound 18), Example 18 (Compound 19) and Example 20 (Compound 21) were compared to each other. For this purpose, the degree of inhibition activity for PTP1B was investigated by using 2 mM p-nitrophenyl phosphate (p-NPP) as a substrate to measure the dephosphorylation degree. First, PTP1B diluted with distilled water was reacted with 2 mM p-nitrophenyl phosphate {p-NPP, 0.1 M NaCl, 1 mM EDTA, 50 mM citrate pH 6.0, and 1 mM dithiothreitol (DTT)} and Compound 1 at various concentrations at 30° C. for 30 minutes, and then the reaction was terminated with a 1 N-sodium hydroxide (NaOH) solution. The absorbance of the samples thus prepared was measured to confirm the inhibition degree (IC50: The half maximal inhibitory concentration) for PTP1B activity according to the concentration of Compound 1. Even for glabridin, Compound 3, Compound 4, Compound 5, Compound 14, Compound 15, Compound 16, Compound 18, Compound 19, and Compound 21, the same measurement was performed.

[2] = tested on: DIO mice; experiment: Anti-obesity effect for DIO mice (body weight); assay type: in vivo, C57BL/6 mice; details: Mus musculus, 672 h, 4 weeks, oral gavage once daily
Method: (§1) Five-week-old female C57BL/6 mice (Narabio Co., Ltd.) were purchased and fed with only high-fat diet for at least 10 weeks to produce diet induced obesity ([…]) mice. Samples were exactly taken from Preparation Example 1 (glabridin) and the compounds of Examples of the present invention (Compounds 1 to 5, 7, 9, 11, 14 to 16, 21, and 23) according to the administration dose and put into Falcon tubes, 3 ml of a 0.5% methyl cellulose aqueous solution was added thereto and a vortex mixer was used to primarily mix the ingredients in a soft manner, and then a homogenizer (30,000 rpm, Ultra-Turrax® T10 Basic, IKA) was used to treat the sample for 3 minutes while 1.5 ml of a 0.5% methyl cellulose aqueous solution was added thereto. The sample thus prepared was administered through oral gavage using a disposable plastic syringe once daily for 28 days (4 weeks). The body weight was measured twice a week while the DIO mice were bred in this manner. Based on the data thus calculated, the anti-obesity effect (%) was calculated according to the equation defined as follows. Anti-Obesity Effect={(Body weight of control group)−(Body weight of experimental group)}/(Body weight of control group)×100

[3] = tested on: DIO mice; experiment: Organ weights and blood biochemistry of DIO mice after 28 days of administration; assay type: in vivo, C57BL/6 mice
Method: as §1
After the experiment was performed for 28 days (4 weeks) as described above, blood was simultaneously taken while the experimental animal was finally sacrificed, and each of the organs (liver, heart, kidney, pancreas, fat tissues and the like) was removed to measure the weight and observe peculiar matters.
In Table 3, { }, ( ) and the like were used in order to differentiate experiments which had been performed at different periods. Experiments without the parenthesis were those simultaneously performed under the same conditions.

[4] = tested on: BV2 microglia cells; experiment: BV2 cell NO assay (LPS-induced NO production, Griess reagent); assay type: cell-based; details: Mus musculus, BV-2, LPS 1 μg/ml, 24 hours
Method: (§2) After the pretreatment, 0.5 mg/ml of the MTT (Sigma, M2128) reagent was further added thereto. After the cells were cultured in a 5% CO2 incubator, the supernatant was discarded, 150 μl of DMSO was added and was shaken for 30 minutes, and an ELISA micro plate reader (Bio Rad Laboratories Inc., California, USA, Model 680) was used to measure the absorbance at a wavelength of 540 nm. All the experimental values were calculated as an average value of three repeated experimental values of the cell protection rate for the control group, and an experiment of suppressing the NO production for each compound was carried out at a concentration in which no cytotoxicity was shown.
(§3) After the reaction, an ELISA micro plate reader (Bio Rad Laboratories Inc., California, USA, Model 680) was used to measure the absorbance at a wavelength of 540 nm. The suppression rate was calculated as a difference in amount of NO produced between the control group and the experimental group, and as shown in the following Table 6 and FIG. 6, Compounds 4, 5, 15, 16, 18, and the like of the present invention were excellent in the effect of suppressing the production of NO, and the effect is also about 5 times to about 9 times better than that of glabridin.

[5] = tested on: RAW264.7 macrophages; experiment: RAW264.7 macrophage NO assay (LPS-induced NO production, Griess reagent); assay type: cell-based
Method: as §2, with “pretreatment,” for “pretreatment, 0.5 mg/ml of”, “reagent at a concentration of 0.5 mg/ml” for “reagent”, “incubator for 4 hours,” for “incubator,”
as §3, with “7,” for “6 and FIG. 6,”, “NO.” for “NO, and the effect is also about 5 times to about 9 times better than that of glabridin.”

[6] = 150 mg/kg, experiment without parenthesis

Sequence of PTP1B (P18031 whole entry, species assumed): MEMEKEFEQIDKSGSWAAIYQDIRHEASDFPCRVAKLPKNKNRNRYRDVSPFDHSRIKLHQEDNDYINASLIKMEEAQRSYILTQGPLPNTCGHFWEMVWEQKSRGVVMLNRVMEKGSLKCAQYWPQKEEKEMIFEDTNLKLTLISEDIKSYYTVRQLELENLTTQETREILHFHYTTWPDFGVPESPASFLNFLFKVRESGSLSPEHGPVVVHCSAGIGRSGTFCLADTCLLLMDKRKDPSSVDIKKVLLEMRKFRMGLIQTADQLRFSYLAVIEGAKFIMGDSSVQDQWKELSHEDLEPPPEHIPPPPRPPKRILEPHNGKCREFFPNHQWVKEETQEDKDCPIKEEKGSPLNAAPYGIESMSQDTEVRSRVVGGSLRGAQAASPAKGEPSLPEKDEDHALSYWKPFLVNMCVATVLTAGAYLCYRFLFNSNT

`CCCCCOc1ccc(C2COc3c(ccc4c3CCC(C)(C)O4)C2)c(O)c1` (stereo not shown) [Compound 19, 3-(2-hydroxy-4-n-pentoxyphenyl)-8,8-dimethyl-2,3,4,8,9,10-hexahydropyrano [2,3-f] chromene] gave an IC50 [1] of 1.2 µM.
With `COCCc1ccc(C2COc3c(ccc4c3CCC(C)(C)O4)C2)c(O)c1` (stereo not shown) [Compound 9, 3-(2-hydroxy-4-(2-methoxyethyl)phenyl)-8,8-dimethyl-2,3,4,8,9,10-hexahydropyrano [2,3-f] chromene] the inhibition in vivo at 150 mg/kg [2] was 10%.
With `COc1ccc(C2COc3c(ccc4c3CCC(C)(C)O4)C2)c(O)c1` (stereo not shown) [Compound 14, 3-(2-hydroxy-4-methoxyphenyl)-8,8-dimethyl-2,3,4,8,9,10-hexahydropyrano [2,3-f] chromene] the IC50 [1] was 6.5 µM, the inhibition in vivo at 150 mg/kg [2] was 12% and the “ALT (U/L)” value [3, 6] was 51 U/L. For the same compound, the “AST (U/L)” value [3, 6] was 131 U/L, the BMI [3, 6] was 3.9 and the “FFA (μEq/L)” value [3, 6] was 2160 μEq/L. The “Fat (g), weight of fat removed around the epididymis and the kidney” value (from here on “Fat (g), weight”) [3, 6] was 2.23 g, the “LDL” value [3, 6] was 13 mg/dL and the “Liver (g), weight of liver” value [3, 6] was 1.19 g.
In the case of `Cc1ccc(C2COc3c(ccc4c3CCC(C)(C)O4)C2)c(O)c1` (stereo not shown) [Compound 3, 3-(2-hydroxy-4-methylphenyl)-8,8-dimethyl-2,3,4,8,9,10-hexahydropyrano [2,3-f] chromene], the IC50 [1] is reported as 7 µM, the inhibition in vivo at 200 mg/kg [2] is reported as 19% and the “ALT (U/L)” value ([3]; 200 mg/kg, { } experiment) is reported as “{73} U/L”. The “AST (U/L)” value ([3]; 200 mg/kg, { } experiment) was “{152} U/L”, the BMI ([3]; 200 mg/kg, { } experiment) was “{3.5}” and the “FFA (μEq/L)” value ([3]; 200 mg/kg, { } experiment) was “{2390} μEq/L”. The “Fat (g), weight” value ([3]; 200 mg/kg, { } experiment) was “{1.62} g”, the “LDL (mg/dL)” value ([3]; 200 mg/kg, { } experiment) was “{22} mg/dL” and the “Liver (g), weight of liver” value ([3]; 200 mg/kg, { } experiment) was “{1.53} g”.
`CCCCc1ccc(C2COc3c(ccc4c3CCC(C)(C)O4)C2)c(O)c1` (stereo not shown) [Compound 7, 3-(2-hydroxy-4-butylphenyl)-8,8-dimethyl-2,3,4,8,9,10-hexahydropyrano [2,3-f] chromene] was tested, and the inhibition in vivo at 150 mg/kg [2] was 14%.
`Cc1cc(O)c(C2COc3c(ccc4c3CCC(C)(C)O4)C2)cc1C` (stereo not shown) [Compound 11, 3-(2-hydroxy-4,5-dimethylphenyl)-8,8-dimethyl-2,3,4,8,9,10-hexahydropyrano [2,3-f] chromene] showed an inhibition in vivo at 150 mg/kg [2] of 8%.
`CC1(C)CCc2c(ccc3c2OCC(c2ccccc2O)C3)O1` (stereo not shown) [Compound 2, 3-(2-hydroxyphenyl)-8,8-dimethyl-2,3,4,8,9,10-hexahydropyrano [2,3-f] chromene] showed an inhibition in vivo at 200 mg/kg [2] of 8%.
In the case of `COCOc1ccc(C2COc3c(ccc4c3CCC(C)(C)O4)C2)c(O)c1` (stereo not shown) [Compound 21, 3-(2-hydroxy-4-(methoxymethoxy)phenyl)-8,8-dimethyl-2,3,4,8,9,10-hexahydropyrano [2,3-f] chromene], the IC50 [1] is reported as 2.3 µM, the inhibition in vivo at 150 mg/kg [2] is reported as 16% and the “ALT (U/L)” value [3, 6] is reported as 46 U/L. For the same compound, the “AST (U/L)” value [3, 6] was 104 U/L, the BMI [3, 6] was 3.6 and the “FFA (μEq/L)” value [3, 6] was 1520 μEq/L. For the same compound, the “Fat (g), weight” value [3, 6] was 2.13 g, the “LDL” value [3, 6] was 12 mg/dL and the “Liver (g), weight of liver” value [3, 6] was 1.11 g.
For `CCCCOc1ccc(C2COc3c(ccc4c3CCC(C)(C)O4)C2)c(O)c1` (stereo not shown) [Compound 18, 3-(2-hydroxy-4-butoxyphenyl)-8,8-dimethyl-2,3,4,8,9,10-hexahydropyrano [2,3-f] chromene], the IC50 [1] was 3.4 µM, the IC50 [4] was 2.8 µM and the IC50 ([5]; Mus musculus, RAW264.7, NO production, LPS 1 μg/ml, 24 hours) was 5.6 µM. For the same compound, the “effect of suppressing the production of NO” value ([5]; RAW264.7 macrophages, in words) was “excellent”.
Compound `CCC1(CC)CCc2c(ccc3c2OCC(c2ccc(OC)cc2O)C3)O1` (stereo not shown) [Compound 23, 3-(2-hydroxy-4-methoxyphenyl)-8,8-diethyl-2,3,4,8,9,10-hexahydropyrano [2,3-f] chromene] has an inhibition in vivo at 200 mg/kg [2] of 11%.
In the case of `CC1(C)CCc2c(ccc3c2OC[C@@H](c2ccc(O)cc2O)C3)O1` [Compound 1, 3″,4″-dihydroglabridin], the IC50 [1] is reported as 46 µM, the inhibition in vivo at 150 mg/kg [2] is reported as 8% and the “ALT (U/L)” value [3, 6] is reported as 34 U/L. The “AST (U/L)” value [3, 6] was 93 U/L, the BMI [3, 6] was 3.8 and the “FFA (μEq/L)” value [3, 6] was 1400 μEq/L. For the same compound, the “Fat (g), weight” value [3, 6] was 2.07 g, the “LDL” value [3, 6] was 11 mg/dL and the “Liver (g), weight of liver” value [3, 6] was 1.24 g.

Source: patent publication US9783551B2, “Pyranochromenyl phenol derivative, and pharmaceutical composition for treating metabolic syndrome or inflammatory disease” (GLACEUM, INC., priority 2013, dated 2017)
